Laboratory results as given in US10175256B2, “Compositions and methods utilizing lysophosphatidylcholine scaffolds” (National University Of Singapore, priority 2013, dated 2019).
“And” between values parts separate entries of the source, which are not always exact repeats. Identical values can stand only once.

Legend:
Mfsd2a = target: T1, Mfsd2a (Mus musculus, UniProt Q9DA75); assay: Competition transport assay with LPC-[3H]palmitate as ligand; format: cell-based; set-up: expressed in transfected cells; host or cells: HEK293; conditions: 25 μM LPC-[3H]palmitate; for competition of foscholines with LPC-[3H]palmitate: 250 μM competitor, 15 mins; for competition for transport/uptake of LPC-[3H]palmitate: 10-fold molar excess (250 μM) competitor, 30 mins (PAF 15 mins)
T1 sequence (Q9DA75 1-534): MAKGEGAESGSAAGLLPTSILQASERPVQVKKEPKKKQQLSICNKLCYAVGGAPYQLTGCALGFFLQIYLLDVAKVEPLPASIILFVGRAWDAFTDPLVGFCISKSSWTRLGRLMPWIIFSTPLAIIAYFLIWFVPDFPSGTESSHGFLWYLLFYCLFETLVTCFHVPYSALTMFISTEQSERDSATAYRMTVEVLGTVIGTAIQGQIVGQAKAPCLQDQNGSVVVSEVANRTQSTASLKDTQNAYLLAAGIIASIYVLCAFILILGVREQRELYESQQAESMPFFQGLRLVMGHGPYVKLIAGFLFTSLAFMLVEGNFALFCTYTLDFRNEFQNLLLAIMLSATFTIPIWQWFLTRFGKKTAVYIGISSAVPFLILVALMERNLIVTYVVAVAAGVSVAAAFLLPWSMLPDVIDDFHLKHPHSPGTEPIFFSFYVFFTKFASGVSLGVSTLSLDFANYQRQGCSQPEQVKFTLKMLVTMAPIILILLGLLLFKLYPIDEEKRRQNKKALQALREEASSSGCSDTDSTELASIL
Experimental: Briefly, 24 h post transfection of HEK293 cells with pcDNA3.1Mfsd2a (WT), pcDNA3.1Mfsd2aD92A (D92A), pcDNA3.1Mfsd2aD96A, or pcDNA3.1 (mock) plasmids were washed once with serum-free DMEM medium before addition of a mixture of 25 μM radiolabeled LPC-palmitate and 250 μM cold competitors, which were dissolved in 12% BSA. Total BSA concentration was kept constant in samples with or without cold competitors. Assays were performed at 37° C. for 30 mins. Competition assays with other LPC analogs such as foscholine detergents, and PAF were performed under the same conditions except for 15 mins. The reduced reaction time was necessary in order to limit potential negative effects of detergents and bioactive lipids on cell survival. All assays were performed in 12 well-plates with triplicates and at 37° C.
We next sought to determine ligand specificity and the chemical features of the LPC ligands that are required for transport by Mfsd2a.

mouse Mfsd2a [1] = assay: Cell-based free fatty acid transport/uptake in Mfsd2a expressing HEK293 cells (mass spectrometry, TLC; Table 1); conditions: MS, replicate columns; for Amount of each lipid species, mol percent in total phospholipid analysed: mock HEK293 cells incubated with 100 uM Arachidonic fatty acid/BSA complex overnight; for Amount of each lipid species normalized to internal standard, mol percent in total phospholipid analysed / Amount of lipid species, mol percent in total phospholipid analysed: mock HEK293 cells; for Amount of lipid species, mol percent in total phospholipid analysed: 100 uM Oleic fatty acid/BSA complex overnight
Outline: (§1)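 HEK293 cells expressing mouse Mfsd2a, or mock controls, were incubated overnight with 100 μM BSA-complexed fatty acids. Lipids were extracted in hexane:isopropanol (3:2) and phospholipid species quantified by HPLC-MS/MS against spiked internal standards. For TLC, cells received 100 μM [^14C]-oleate overnight, and phospholipids and neutral lipids were resolved.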

mouse Mfsd2a [2] = target: T2, mouse Mfsd2a (Mus musculus, UniProt Q9DA75); assay: as above; conditions: replicate columns; for Amount of each lipid species, mol percent in total phospholipid analysed: Mfsd2a expressing HEK293 cells incubated with 100 uM Arachidonic fatty acid/BSA complex overnight; for Amount of lipid species, mol percent in total phospholipid analysed / Amount of each lipid species normalized to internal standard, mol percent in total phospholipid analysed: Mfsd2a expressing HEK293 cells
T2 construct: expressed in transfected cells; host or cells: HEK293
T2 sequence (Q9DA75 1-534): T1 sequence (Q9DA75 1-534)
Outline: as §1

[3] = 100 uM Docosahexaenoic acid/BSA complex overnight
[4] = 100 uM Eicosapentaenoic acid/BSA complex overnight
[5] = 100 uM Alpha-linolenic fatty acid/BSA complex overnight
[6] = 100 uM Linoleic fatty acid/BSA complex overnight
[7] = 100 uM Docosahexaenoic acid/BSA complex overnight, MS
[8] = 100 uM Eicosapentaenoic acid/BSA complex overnight, MS
[9] = 100 uM Oleic fatty acid/BSA complex overnight, MS

CCCCCCCCCCCCCCCCOP(=O)([O-])OCC[N+](C)(C)C [Miltefosine] was tested, and the “competition of foscholines with LPC-[3H]palmitate” value (shortened to “competition of foscholines”) (Mfsd2a) was “strong competition”.
In the case of CCCCCCCCCCCCCCCCOC[C@@H](O)COP(=O)([O-])OCC[N+](C)(C)C [lysoplatelet activating factor], the “competition for transport/uptake of LPC-[3H]palmitate” value (from here on “competition for transport/uptake”) (Mfsd2a) is reported as “strong competitors”.
In the case of lysophosphatidylserine [LPS], the “competition for transport/uptake” value (Mfsd2a) is reported as “weak competition”.
C[N+](C)(C)CCOP(=O)([O-])OC[C@H](O)CO [glycerophosphatidylcholine, alpha-glycerylphosphocholine] was tested, and the “competition for transport/uptake” value (Mfsd2a) was “not a competitor”.
With CCCCCCCCOP(=O)([O-])OCC[N+](C)(C)C [Fos-8] the “competition of foscholines” value (Mfsd2a) was “did not compete”.
For CCCCCCCCCCOP(=O)([O-])OCC[N+](C)(C)C [Fos-10], the “competition of foscholines” value (Mfsd2a) was “did not compete”.
With CCCCCCCCCCCCC/C=C/[C@@H](O)[C@@H](N)COP(=O)(O)O [sphingosine-1-phosphate] the “competition for transport/uptake” value (Mfsd2a) was “not a competitor” and the “competition for transport/uptake” value (Mfsd2a; listed as sphingosine 1-phosphate) was “did not compete”.
For lysophosphatidic acid [LPA], the “competition for transport/uptake” value (Mfsd2a) was “non-competitive”.
For CCCCCCCCCCCCCCCCCC(=O)OC[C@@H](O)COP(=O)([O-])OCC[N+](C)(C)C [LysoPC18:0], the “Amount of each lipid species, mol percent in total phospholipid analysed” value (mouse Mfsd2a [1]) was 0.006849 mol percent and 0.006628 mol percent and 0.006426 mol percent, the “Amount of each lipid species normalized to internal standard, mol percent in total phospholipid analysed” value (mouse Mfsd2a [1]; [3]) was 0.008486 mol percent and 0.008947 mol percent and 0.009444 mol percent and the “Amount of each lipid species normalized to internal standard, mol percent in total phospholipid analysed” value (mouse Mfsd2a [1]; [4]) was 0.006911 mol percent and 0.007615 mol percent and 0.006374 mol percent. For the same compound, the “Amount of lipid species, mol percent in total phospholipid analysed” value (shortened to “Amount of lipid species, mol percent”) (mouse Mfsd2a [1]) was 0.005105 mol percent and 0.004638 mol percent and 0.005658 mol percent, the “Amount of each lipid species, mol percent in total phospholipid analysed” value (mouse Mfsd2a [2]; MS) was 0.006865 mol percent and 0.00639 mol percent and 0.005642 mol percent and 0.008281 mol percent and the “Amount of lipid species, mol percent” value (mouse Mfsd2a [2]; [5]) was 0.008875 mol percent and 0.009786 mol percent and 0.00943 mol percent and 0.009646 mol percent. For the same compound, the “Amount of lipid species, mol percent” value (mouse Mfsd2a [2]; [6]) was 0.006967 mol percent and 0.006454 mol percent and 0.007395 mol percent and 0.006903 mol percent, the “Amount of each lipid species normalized to internal standard, mol percent in total phospholipid analysed” value (mouse Mfsd2a [2]; [7]) was 0.009464 mol percent and 0.008616 mol percent and 0.009301 mol percent and 0.008257 mol percent and the “Amount of each lipid species normalized to internal standard, mol percent in total phospholipid analysed” value (mouse Mfsd2a [2]; [8]) was 0.006896 mol percent and 0.007974 mol percent and 0.005812 mol percent and 0.007684 mol percent. For the same compound, the “Amount of lipid species, mol percent” value (mouse Mfsd2a [2]; [9]) was 0.005262 mol percent and 0.005101 mol percent and 0.005659 mol percent and 0.004823 mol percent.
In the case of CCCCCCCCCCCCC/C=C/[C@@H](O)[C@@H](N)COP(=O)([O-])OCC[N+](C)(C)C [Lysosphingomyelin], the “competition for transport/uptake” value (Mfsd2a) is reported as “competed” and the “competition for transport/uptake” value (Mfsd2a; listed as lysosphingomyelin) is reported as “strong competition”.
With CCCCCCCCCCCCCC/C=C\OC[C@@H](O)COP(=O)(O)OCCN [Lyso PE16:0p] the “Amount of each lipid species normalized to internal standard, mol percent in total phospholipid analysed” value (mouse Mfsd2a [1]; [3]) was 2.843 mol percent and 2.772 mol percent and 2.42 mol percent, the “Amount of each lipid species normalized to internal standard, mol percent in total phospholipid analysed” value (mouse Mfsd2a [1]; [4]) was 3.984 mol percent and 3.09 mol percent and 2.343 mol percent and the “Amount of lipid species, mol percent” value (mouse Mfsd2a [1]) was 3.062 mol percent and 2.456 mol percent and 2.052 mol percent. For the same compound, the “Amount of lipid species, mol percent” value (mouse Mfsd2a [2]; [5]) was 3.296 mol percent and 3.844 mol percent and 2.809 mol percent and 2.876 mol percent, the “Amount of lipid species, mol percent” value (mouse Mfsd2a [2]; [6]) was 1.997 mol percent and 3.121 mol percent and 2.462 mol percent and 2.098 mol percent and the “Amount of each lipid species normalized to internal standard, mol percent in total phospholipid analysed” value (mouse Mfsd2a [2]; [7]) was 3.182 mol percent and 3.1158 mol percent and 3.231 mol percent and 3.697 mol percent. The “Amount of each lipid species normalized to internal standard, mol percent in total phospholipid analysed” value (mouse Mfsd2a [2]; [8]) was 2.495 mol percent and 3.134 mol percent and 3.766 mol percent and 2.379 mol percent and the “Amount of lipid species, mol percent” value (mouse Mfsd2a [2]; [9]) was 2.254 mol percent and 2.591 mol percent and 2.664 mol percent and 2.476 mol percent.
With CCCCCCCCCCCCCCCC(=O)OC[C@@H](O)COP(=O)(O)OCCN [LysoPE16:0] the “Amount of each lipid species, mol percent in total phospholipid analysed” value (mouse Mfsd2a [1]) was 0.08991 mol percent and 0.08319 mol percent and 0.0827 mol percent, the “Amount of each lipid species normalized to internal standard, mol percent in total phospholipid analysed” value (mouse Mfsd2a [1]; [3]) was 0.06318 mol percent and 0.083 mol percent and 0.06994 mol percent and the “Amount of each lipid species normalized to internal standard, mol percent in total phospholipid analysed” value (mouse Mfsd2a [1]; [4]) was 0.06426 mol percent and 0.1796 mol percent and 0.1079 mol percent. The “Amount of lipid species, mol percent” value (mouse Mfsd2a [1]) was 0.056 mol percent and 0.03411 mol percent and 0.06706 mol percent, the “Amount of each lipid species, mol percent in total phospholipid analysed” value (mouse Mfsd2a [2]; MS) was 0.1468 mol percent and 0.08379 mol percent and 0.1077 mol percent and 0.1337 mol percent and the “Amount of lipid species, mol percent” value (mouse Mfsd2a [2]; [5]) was 0.1381 mol percent and 0.2428 mol percent and 0.2355 mol percent and 0.07619 mol percent. The “Amount of lipid species, mol percent” value (mouse Mfsd2a [2]; [6]) was 0.03967 mol percent and 0.1018 mol percent and 0.06313 mol percent and 0.02483 mol percent, the “Amount of each lipid species normalized to internal standard, mol percent in total phospholipid analysed” value (mouse Mfsd2a [2]; [7]) was 0.08329 mol percent and 0.03847 mol percent and 0.07102 mol percent and 0.05717 mol percent and the “Amount of each lipid species normalized to internal standard, mol percent in total phospholipid analysed” value (mouse Mfsd2a [2]; [8]) was 0.09357 mol percent and 0.09693 mol percent and 0.09655 mol percent and 0.07626 mol percent. For the same compound, the “Amount of lipid species, mol percent” value (mouse Mfsd2a [2]; [9]) was 0.04601 mol percent and 0.01705 mol percent and 0.1151 mol percent and 0.08973 mol percent.
CCCCCCCCCCCCCCCCCCOC[C@@H](O)COP(=O)([O-])OCC[N+](C)(C)C [LysoPC18:0e] was tested, and the “Amount of each lipid species, mol percent in total phospholipid analysed” value (mouse Mfsd2a [1]) was 0.00137 mol percent and 0.002231 mol percent and 0.001637 mol percent, the “Amount of each lipid species normalized to internal standard, mol percent in total phospholipid analysed” value (mouse Mfsd2a [1]; [3]) was 0.002177 mol percent and 0.002156 mol percent and 0.002215 mol percent and the “Amount of each lipid species normalized to internal standard, mol percent in total phospholipid analysed” value (mouse Mfsd2a [1]; [4]) was 0.001609 mol percent and 0.002109 mol percent and 0.001671 mol percent. For the same compound, the “Amount of lipid species, mol percent” value (mouse Mfsd2a [1]) was 0.001802 mol percent and 0.00157 mol percent and 0.001773 mol percent, the “Amount of each lipid species, mol percent in total phospholipid analysed” value (mouse Mfsd2a [2]; MS) was 0.001403 mol percent and 0.001832 mol percent and 0.001957 mol percent and 0.00156 mol percent and the “Amount of lipid species, mol percent” value (mouse Mfsd2a [2]; [5]) was 0.001528 mol percent and 0.001007 mol percent and 0.001383 mol percent and 0.001468 mol percent. For the same compound, the “Amount of lipid species, mol percent” value (mouse Mfsd2a [2]; [6]) was 0.00128 mol percent and 0.001885 mol percent and 0.001443 mol percent and 0.001726 mol percent, the “Amount of each lipid species normalized to internal standard, mol percent in total phospholipid analysed” value (mouse Mfsd2a [2]; [7]) was 0.002316 mol percent and 0.001944 mol percent and 0.002079 mol percent and 0.002217 mol percent and the “Amount of each lipid species normalized to internal standard, mol percent in total phospholipid analysed” value (mouse Mfsd2a [2]; [8]) was 0.002414 mol percent and 0.001699 mol percent and 0.001986 mol percent and 0.001832 mol percent. The “Amount of lipid species, mol percent” value (mouse Mfsd2a [2]; [9]) was 0.002105 mol percent and 0.002254 mol percent and 0.001084 mol percent and 0.001841 mol percent.
For lysophosphatidylethanolamine [LPE], the “competition for transport/uptake” value (Mfsd2a) was “weak competition”.
